The record followed here is BindingDB's records for patent US12435061 (Kamari Pharma, 2025).

pIC50: −log10 of the molar value.

The target in the test is T1, Transient receptor potential cation channel subfamily V member 3 (Homo sapiens, UniProt Q8NET8).
T1 sequence (Q8NET8 whole entry): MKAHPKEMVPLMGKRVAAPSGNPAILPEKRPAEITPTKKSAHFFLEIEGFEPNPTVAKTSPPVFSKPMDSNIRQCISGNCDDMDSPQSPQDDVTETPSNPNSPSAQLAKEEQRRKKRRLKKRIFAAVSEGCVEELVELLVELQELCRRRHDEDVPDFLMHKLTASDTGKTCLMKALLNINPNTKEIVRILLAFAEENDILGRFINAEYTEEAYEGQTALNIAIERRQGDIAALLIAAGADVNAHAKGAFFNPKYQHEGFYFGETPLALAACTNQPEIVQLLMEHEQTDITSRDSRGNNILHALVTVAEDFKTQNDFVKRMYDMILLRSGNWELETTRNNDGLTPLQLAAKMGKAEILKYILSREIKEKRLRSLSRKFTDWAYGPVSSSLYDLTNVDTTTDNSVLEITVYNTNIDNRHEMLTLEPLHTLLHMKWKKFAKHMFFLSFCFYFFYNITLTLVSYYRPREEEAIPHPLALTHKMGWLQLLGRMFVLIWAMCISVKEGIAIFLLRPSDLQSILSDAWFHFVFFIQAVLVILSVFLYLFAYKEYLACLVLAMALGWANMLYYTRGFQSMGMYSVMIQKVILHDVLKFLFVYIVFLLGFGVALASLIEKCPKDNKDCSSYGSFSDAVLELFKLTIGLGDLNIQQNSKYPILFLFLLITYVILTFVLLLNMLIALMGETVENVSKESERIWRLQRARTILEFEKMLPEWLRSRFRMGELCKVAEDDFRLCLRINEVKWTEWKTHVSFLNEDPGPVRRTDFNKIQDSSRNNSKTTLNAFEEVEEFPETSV
The test can be described thus: Patch Clamp Experiments. On the procedure:
TRPV3 cells were induced 20-48 hours, removed from growth plates, and replated at low density (to attain good single-cell physical separation) on glass coverslips for measurement. In some cases, cells were grown in low density overnight on glass coverslips. Patch clamp recordings were made in the whole-cell mode with a holding potential of −40 mV. Every 5 seconds, a voltage ramp was applied from −120 to +100 mV, 400 ms in duration. Currents elicited were quantified at −80 mV and +80 mV. […] External solution was Ringer's solution described above.

The molecule `O=[N+](O)c1cc(-c2ccccc2)ccc1N1CC[C@H](Oc2ccc3cc(Cl)ccc3n2)C1` [US12435061, Compound 1-70] gave a pIC50 of less than 5.49.

`CCc1ccccc1Oc1ccc(N2CC[C@H](Oc3ccc(C(F)(F)F)cn3)C2)c(CO)n1` [US12435061, Compound 1-212]: the pIC50 was less than 5.49.

In general, pIC50 refers to −log10 of the IC50, conventionally taken in molar units.
